Measurements as given in patent publication US12448382B2, “Heterocyclic compounds for mediating tyrosine kinase 2 activity” (GUANGZHOU INNOCARE PHARMA TECH CO., LTD., priority 2019, dated 2025).
pIC50: −log10 of the molar value.

Tests used:
[1] = molecular target: T1, human recombinant TYK2 protein (Homo sapiens, UniProt P29597); test: TYK2 Inhibition Assay (HTRF kinase assay); format: biochemical; details: human recombinant TYK2, 11.25 μM ATP substrate solution
T1 construct: purchased Carna Biosciences 08-147
T1 sequence (P29597 871-1187 limits assumed): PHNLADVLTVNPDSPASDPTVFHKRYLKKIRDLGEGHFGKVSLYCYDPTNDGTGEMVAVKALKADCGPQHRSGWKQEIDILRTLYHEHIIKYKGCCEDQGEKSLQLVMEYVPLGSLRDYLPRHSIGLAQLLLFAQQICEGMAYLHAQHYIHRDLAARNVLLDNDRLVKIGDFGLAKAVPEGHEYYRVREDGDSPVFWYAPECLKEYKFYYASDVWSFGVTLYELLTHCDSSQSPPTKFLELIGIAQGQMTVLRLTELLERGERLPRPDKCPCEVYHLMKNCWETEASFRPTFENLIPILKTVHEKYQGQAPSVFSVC
Method in brief: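 Recombinant human TYK2 was pre-incubated 15 min at room temperature with compound, then reacted for 40 min with biotinylated tyrosine-kinase substrate and ATP (substrate solution 11.25 μM ATP, 0.5 μM substrate; 5 mM MgCl2, 0.01% Brij35). Phosphorylation was read by HTRF 665/620 ratio, normalised to no-enzyme and no-compound controls, and IC50 was fitted from 8 4-fold dilutions.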

[2] = system: IL-12-induced IFN-γ secretion in NK92 cells; test: Inhibition of IL-12-induced IFN-γ Secretion in NK92 Cells (ELISA); format: cell-based, human; details: Homo sapiens, 24 hours incubation, 8 concentration points, read-out: IC50 (NK92_IL12/IFNγ)
Method in brief: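 NK92 cells (100,000/well, IL-2-free medium) rested overnight, then treated with compound plus IL-12 for 24 h at 37 °C. Secreted IFN-γ measured in supernatant by ELISA. Inhibition normalized to unstimulated and IL-12/0.2% DMSO controls; IC50 fitted from 8 concentrations.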

[3] = molecular target: T2, human recombinant JAK2 protein (Homo sapiens, UniProt O60674); test: JAK2 Inhibition Assay (HTRF kinase assay); format: biochemical; details: human recombinant JAK2, 2.5 μM ATP substrate solution
T2 construct: purchased Carna Biosciences 08-045
T2 sequence (O60674 826-1132 limits assumed): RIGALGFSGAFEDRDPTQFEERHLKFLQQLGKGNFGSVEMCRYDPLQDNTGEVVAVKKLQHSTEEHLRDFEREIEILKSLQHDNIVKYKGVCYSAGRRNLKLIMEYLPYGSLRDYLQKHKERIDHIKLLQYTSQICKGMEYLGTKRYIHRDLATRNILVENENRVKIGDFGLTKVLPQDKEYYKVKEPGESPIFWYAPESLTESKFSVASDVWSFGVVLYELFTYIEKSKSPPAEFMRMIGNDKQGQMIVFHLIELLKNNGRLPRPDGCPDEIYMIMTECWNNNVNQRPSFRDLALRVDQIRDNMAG
Method in brief: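 Recombinant human JAK2 was preincubated 15 min at room temperature with compound in buffer containing 5 mM MgCl2, 1 mM DTT and 0.01% Brij35. Substrate solution (2.5 μM ATP, 0.25 μM biotinylated TK substrate) was then added for 30 min. Phosphorylation was detected by HTRF (665/620 nm ratio; no-enzyme = 100% inhibition), and IC50 was fitted from an 8-point, 4-fold series.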

Compound	IC50 [1]	pIC50 [2]	IC50 [3]
Cn1cc(Nc2ncc(Cl)c(N3C[C@]4(C)CN(C(=O)C5CC5)C[C@]4(C)C3)n2)cn1 [Compound 12, ((3aR,6aS)-5-(5-chloro-2-((1-methyl-1H-pyrazol-4-yl)amino)pyrimidin-4-yl)-3a,6a-dimethylhexahydropyrrolo[3,4-c]pyrrol-2(1H)-yl)(cyclopropyl)methanone]	1.1 nM	6.38	4.2 nM
Cn1cc(Nc2ncc(Cl)c(N3C[C@H]4CN(C(=O)CC#N)C[C@]4(C)C3)n2)cn1 (racemic) [Compound 100, trans-3-(5-(5-chloro-2((1-methyl-1H-pyrazol-4-yl)amino)pyrimidin-4-yl)-3a-methylhexahydropyrrolo[3,4-c]pyrrol-2(1H)-yl)-3-oxopropanenitrile]	2.2 nM	6.12	5 nM
Cn1cc(Nc2ncc(Cl)c(N3C[C@H]4CN(C(=O)C5CC5)C[C@@]4(C)C3)n2)cn1 [Compound 87, ((3aR,6aS)-5-(5-chloro-2-((1-methyl-1H-pyrazol-4-yl)amino)pyrimidin-4-yl)-3a-methylhexahydropyrrolo[3,4-c]pyrrol-2(1H)-yl)(cyclopropyl)methanone]	6 nM	6.02	9 nM
C[C@@]12CN(C(=O)C3CC3)C[C@]1(C)CN(c1nc(Nc3ccc(C(=O)N4CCOCC4)nc3)ncc1Cl)C2 [Compound 53, ((3aR,6aS)-5-(5-chloro-2-((6-(morpholine-4-carbonyl)pyridin-3-yl)amino)pyrimidin-4-yl)-3a,6a-dimethylhexahydropyrrolo[3,4-c]pyrrol-2(1H)-yl)(cyclopropyl)methanone]	3.2 nM	6.04	3.8 nM
Cn1cc(Nc2ncc(Cl)c(N3C[C@@H]4CN(C(=O)[C@@H]5CC5(F)F)C[C@]4(C)C3)n2)cn1 [Compound 90]	0.1 nM	7.02	0.6 nM
Cn1cc(Nc2ncc(Cl)c(N3C[C@]4(C)CN(C(=O)CC(F)F)C[C@]4(C)C3)n2)cn1 [Compound 52]	0.9 nM	6.54	1.8 nM
Cn1cc(Nc2ncc(Cl)c(N3C[C@H]4CN(C(=O)CC#N)C[C@H]4C3)n2)cn1 [Compound 26, 3-((3aR,6aS)-5-(5-chloro-2-((1-methyl-H-pyrazol-4-yl)amino)pyrimidin-4-yl)hexahydropyrrolo[3,4-c]pyrrol-2(1H)-yl)-3-oxopropanenitrile]	6.1 nM	6.19	10 nM
Cn1cc(Nc2ncc(Cl)c(N3C[C@]4(C)CN(CC(F)(F)F)C[C@]4(C)C3)n2)cn1 [Compound 40, 5-chloro-4-((3aR,6aS)-3a,6a-dimethyl-5-(2,2,2-trifluoroethyl)hexahydropyrrolo[3,4-c]pyrrol-2(1H)-yl)-N-(1-methyl-1H-pyrazol-4-yl)pyrimidin-2-amine]	0.4 nM	6.37	1.2 nM

More lines, in order of falling IC50 [1], values ahead:

IC50 [1]	pIC50 [2]	IC50 [3]	Compound
51 nM	5.40	40 nM	Cn1cc(Nc2ncc(Cl)c(N3C[C@]4(C)CN(Cc5cn[nH]c5)C[C@]4(C)C3)n2)cn1 [Compound 79, 4-((3aR,6aS)-5-((1H-pyrazol-4-yl)methyl)-3a,6a-dimethylhexahydropyrrolo[3,4-c]pyrrol-2(1H)-yl)-5-chloro-N-(1-methyl-1H-pyrazol-4-yl)pyrimidin-2-amine]
4.2 nM	5.56	7.6 nM	Cc1cc(CN2C[C@@]3(C)CN(c4nc(Nc5cnn(C)c5)ncc4Cl)C[C@@]3(C)C2)on1 [Compound 78, 5-chloro-4-((3aR,6aS)-3a,6a-dimethyl-5-((3-methylisoxazol-5-yl)methyl)hexahydropyrrolo[3,4-c]pyrrol-2(1H)-yl)-N-(1-methyl-1H-pyrazol-4-yl)pyrimidin-2-amine]
0.5 nM	6.18	1 nM	C[C@@]12CN(C(=O)C3CC3)C[C@]1(C)CN(c1nc(Nc3cnn(CCO)c3)ncc1Cl)C2 [Compound 32]
